Experimental data taken from patent US20080031868A1, “HUMAN LYSOZYME MEDICINE, ITS MANUFACTURING METHOD AND APPLICATION THEREOF” (priority 2005, published 2008).

Assays:
HELA cell = test: Toxicity to HELA cell (CPE, Reed-Muench)
Procedure: 1. Determination of the Toxicity of Recombinant Human Lysozyme to HELA Cell:
HELA cells were seeded on 96-well culture plates at the concentration of 400,000/mi and grown at 37° C. in a 5% CO2 incubator for 2 hours. 100 μl recombinant human lysozyme which were double-diluted from 6000 ug/ml to 11.7 ug/ml and positive reference medicine which were double-diluted from 6000 ug/ml to 11.7 ug/ml were respectively added to 3 wells per concentration. At the same time the reference cells were cultivated at 37° C. in a 5% CO2 incubator for 6 days. Inverted microscope was used everyday to observe the cytopathic effect (CPE). The cytopathic effect under 25% was recorded as “+”, the cytopathic effect under 26%˜50% was recorded as “++”, the cytopathic effect under 51%˜75% was recorded as “+++” and the cytopathic effect under 76%˜100% was recorded as “++++”. Drug median toxic dose (TD50) and minimum toxic dose (TD0) were calculated by using Reed-Muench method.

No. 04 Coronavirus [1] = test: Inhibition on No. 04 Coronavirus in HELA cells (CPE method); format: cell-based
Procedure: HELA cells were seeded on 96-well cultivation plates at the concentration of 400,000/ml and grown to monolayer at 37° C. in 5% CO2 incubator for 24 hours. After removal of cultivation liquid, coronavirus liquid were added to HELA cells and absorbed at 37° C. in 5% CO2 incubator for 2 hours. […] At the same time reference cells and reference virous were cultivated at 37° C. in 5% CO2 incubator for 5 to 7 days. Inverted microscope was used everyday to observe the cytopathic effect (CPE) of virus. The determination were ended according to the appearance of “+++-++++”. […] The determination was repeated three times.

[2] = system: drug-resistant suppurative streptococcus; test: Amygdalitis model of mice, upper respiratory tract infection; format: in vivo
Description: C. The preparation of the amygdalitis model of mice infected by the drug-resistant suppurative streptococcus with the upper respiratory tract:
10 healthy Kunming mice (18˜22 g), male and female, infected by the drug-resistant suppurative streptococcus with the upper respiratory tract in way of spraying which induce the amygdalitis of mice, then promptly suck aerosol (powder or liquid) according to 30000 u/ml/20 g and give medicines three times a day. Observe for one week after infecting and record the efficient rate of mice. […]

[3] = system: bronchus pneumonia of mice by sucking the hydrochloric acid; test: Bronchus pneumonia (bronchus lung injury) of mice by sucking atomized hydrochloric acid; format: in vivo, Kunming mice
Procedure: D. The effect of human lysozyme to bronchus pneumonia of mice by sucking the hydrochloric acid:
50 mice were equally divided to 5 groups at random, selecting randomly 4 groups among them to make the model of the mice atomized hydrochloric acid.
Each batch of 10 mice was put in Glass desiccator which equipped the self-made atomizer contained 1 N HCI solution. The principle of electronic supra-frequency shaker was used to atomizate hydrochloric acid, then it was inspired for 1 hour by mice to make model of inspiring bronchus lung injury. Its mechanism is that inspiring acidoid can cause adhesion of leucocyte and increasing expression of ICAM-1 and permeability of endotheliocyte and cellula epithelialis to protein, thereby to cause pneumochysis. Otherwise inspiring acidoid can cause the release of phlegmonosis cytokine. Assembling in lung and reciprocal activation of these cytokine and neutrophilic leukocyte can induce cell adhesion and tissue damage.
40 mice models were gathered and then randomly divided to 4 groups. 3 groups were treated with drug, 1 group were treated as model group.
The concentration of recombinant human lysozyme medicine was set at 15000 u/ml in clinical atomization therapy. The dose was 15000 u per time once daily, I.e 0.5 mg per time. The dose was 1.3×10^−3mg a mice (calculated by weight of 20 g). Human ventilatory capacity (9000 ml/min) corresponded with 375 times of mice ventilatory capacity (24 ml/min). Human single dose (0.5 mg/70 kg) corresponded with 384 times of mice dose (1.3×10^−3 mg/20 g). Two folds between ventilatory capacity and single dose were closed, so clinical human dose was used for atomization therapy of mice. Availability of clinical inspiring lysozyme atomized was higher than breathing amount of mice by itself in atomizer. To ensure the breathing amount of lysozyme, the breathing time were extended for 1 hour. Based on 0.5 mg/ml as low dose, the concentration of 1.0 mg/ml and 2.0 mg/ml were set respectively as middle and high dose. The mice were put into the glass desiccator and then treated with human lysozyme atomized in the compression sprayer (PARL.BOY) once daily, and continued 5-10 days (shown in FIG. 2).
As atomization was treated to the 5th and 10th day, half animals (5) of every group were dissected, then the lung tissues were weighed and the lung coefficients were calculated according to the weight. Pathological changes of appearance and the lung tissue were observed respectively by naked eye and pathological section.

[4] = system: drug-resistant suppurative streptococcus; test: Acute or chronic suppurative faucitis model of mice, upper respiratory tract infection; format: in vivo
Description: B. Preparation of the acute or chronic suppurative faucitis model of little mice infected by the drug-resistant suppurative streptococcus with the upper respiratory tract:
10 healthy Kunming mice (18˜22 g), male and female, were infected by the drug-resistant suppurative streptococcus with the upper respiratory tract in way of spraying which induced the acute or chronic suppurative faucitis of mice, and then promptly treated with aerosol (powder or liquid) at the dose of 30000 u/ml/20 g and give medicines three times a day. Observe for one week after infecting and record the efficient rate of mice. […]

No. 04 Coronavirus [5] = test: organism not typed; format: cell-based
Procedure: HELA cells were seeded on 96-well cultivation plates at the concentration of 400,000/ml and grown to monolayer at 37° C. in 5% CO2 incubator for 24 hours. […] Then 100 TCID50coronavirus liquid were added to HELA cells. At the same time reference cell and reference virous were cultivated at 37° C. in 5% CO2 incubator for 5 to 7 days. At the same time normal cell reference and virous reference were cultivated at 37° C. in 5% CO2 incubator for 5 to 7 days. Inverted microscope was used everyday to observe the cytopathic effect (CPE) of virus. The determination were ended according to the appearance of “+++-++++”. […] The determination was repeated three times.

[6] = inhibition: drug added after virus absorbed 2 hours, mean of thrice test
[7] = 10 mice, aerosol 30000 u/ml/20 g three times a day, one week
[8] = atomized solution and inhalation
[9] = high dosage 2.0 mg/ml, atomization treated for 5 days
[10] = high dosage 2.0 mg/ml, atomization treated for 10 days
[11] = low dosage 0.5 mg/ml, atomization treated for 5 days
[12] = low dosage 0.5 mg/ml, atomization treated for 10 days
[13] = median dosage 1.0 mg/ml, atomization treated for 5 days
[14] = median dosage 1.0 mg/ml, atomization treated for 10 days
[15] = prevention: drug absorbed 2.5 hours before 100 TCID50 virus, mean of thrice test

Human lysozyme: gene recombinant Human Lysozyme (HLZ), active unit 30000 u/mg, batch number 020110; given atomized / as aerosol
median toxic dose (TD50) (HELA cell): 1500 ± 0 µg/mL | minimum toxic dose (TD0) (HELA cell): 750 ± 0 µg/mL | therapeutic index (TI) (No. 04 Coronavirus [1]; inhibition: drug added after virus): 16 | median inhibitory concentration (IC50) (No. 04 Coronavirus [1]; [6]): 23.4 ± 0 µg/mL | minimum inhibitory concentration (MIC) (No. 04 Coronavirus [1]; [6]): 46.8 ± 0 µg/mL | Efficient % [2, 7]: 100% | Healing [2, 7]: 8 | Invalid [2, 7]: 0 | Valid [2, 7]: 2 | curative effect to the amygdalitis of mice [2, 8]: obvious curative effect | effect on mice model of bronchus lung injury caused by inspiring hydrochloric acid ([3]; atomization): validated effective | Lung coefficient (g/g) × 10^−3 [3, 9]: 9.1 ± 1.00 (g/g) × 10^−3 | Weight [3, 9]: 29.4 ± 3.3 g | Lung coefficient (g/g) × 10^−3 [3, 10]: 8.32 ± 1.84 (g/g) × 10^−3 | Weight [3, 10]: 31.2 ± 2.0 g | pathohistology observation of bronchiole and bronchia in lung ([3]; high dosage group, 5 days): little infiltration of a few monocytes and lymphocytes in bronchus between lobules, and a few phlegmasia cells and secretion in part bronchioles | pathological section: animals changed pathologically ([3]; high dosage group, 5 days): 2/5 | pathological section: animals normal ([3]; high dosage group, 5 days): 3/5 | Lung coefficient (g/g) × 10^−3 [3, 11]: 7.30 ± 0.43 (g/g) × 10^−3 | Weight [3, 11]: 29.6 ± 1.6 g | Lung coefficient (g/g) × 10^−3 [3, 12]: 7.10 ± 0.61 (g/g) × 10^−3 | Weight [3, 12]: 30.7 ± 3.0 g | pathohistology observation of bronchiole and bronchia in lung ([3]; low dosage group, 5 days): two spalling of epithelium mucosae in bronchioles and bronchia of one lung tissue, a little erythrocytes in bronchiole lumina of another lung tissue, and normality in the others | pathological section: animals kept normally ([3]; low dosage group, 5 days): 4/5 | Lung coefficient (g/g) × 10^−3 [3, 13]: 7.8 ± 0.65 (g/g) × 10^−3 | Weight [3, 13]: 29.2 ± 2.4 g | Lung coefficient (g/g) × 10^−3 [3, 14]: 8.30 ± 1.40 (g/g) × 10^−3 | Weight [3, 14]: 30.6 ± 2.2 g | pathohistology observation of bronchiole and bronchia in lung ([3]; median dosage group, 5 days): little infiltration of a few monocytes and lymphocytes around part bronchioles, intactness of upper strata wall of most bronchioles tunica mucosa, spalling of a few epithelium mucosae | pathological section: animals kept normally ([3]; median dosage group, 5 days): 5/5 | Efficient % [4, 7]: 100% | Healing [4, 7]: 8 | Invalid [4, 7]: 0 | Valid [4, 7]: 2 | curative effect to acute or chronic suppurative faucitis of mice [4, 8]: obvious curative effect | median inhibitory concentration (IC50) (No. 04 Coronavirus [5]; [15]): 5.9 ± 0 µg/mL | minimum inhibitory concentration (MIC) (No. 04 Coronavirus [5]; [15]): 11.7 ± 0 µg/mL | therapeutic index (TI) (No. 04 Coronavirus [5]; prevention: drug before virus): 64
